Laboratory results published in US10131648B2, “Substituted benzothiophenyl derivatives as GPR40 agonists for the treatment of type II diabetes” (Janssen Pharmaceutica NV, priority 2014, dated 2018).

Assays:
[1] = target: human GPR40 (Homo sapiens (Human), UniProt O14842); assay: GPR40 Calcium Flux Assay; type: cell-based; details: transfected HEK293 cells stably expressing human GPR40; Ca2+ mobilization; mean data; read-out: hGPR40 Ca^2+ Assay EC50
[2] = test system: Male SD rats; assay: Oral Glucose Tolerance Test; type: in vivo, rat; details: 10 mg/kg, thirty to forty min prior to oGTT (glucose, 2 g/kg, po), blood glucose AUC t=0 to t=120 minutes
Description: Male SD rats (200-250 g) were housed 2 per cage in a temperature-controlled room with a 12-hour light/dark cycle. They were allowed ad libitum access to water and fed with normal rodent chow. The night before the oral glucose tolerance test (oGTT), the rats were transferred to clean cages and fasted overnight. On the morning of the oGTT, the rats were weighed and randomized into groups based on fasted blood glucose and body weight. Rats were dosed with vehicle (0.5% methocel) or compounds (10 mg/kg, po) thirty to forty min prior to the oGTT (glucose, 2 g/kg, po). Blood was collected from the tail vein at 0, 10, 30, 60 and 120 minutes after glucose challenge to measure blood glucose; plasma was used to determine insulin levels. The area under the curve for blood glucose excursion was calculated from t=0 to t=120 minutes. Percent lowering of glucose was calculated from the AUC data with respect to the vehicle-treated group.

Chain of human GPR40 (O14842 whole entry): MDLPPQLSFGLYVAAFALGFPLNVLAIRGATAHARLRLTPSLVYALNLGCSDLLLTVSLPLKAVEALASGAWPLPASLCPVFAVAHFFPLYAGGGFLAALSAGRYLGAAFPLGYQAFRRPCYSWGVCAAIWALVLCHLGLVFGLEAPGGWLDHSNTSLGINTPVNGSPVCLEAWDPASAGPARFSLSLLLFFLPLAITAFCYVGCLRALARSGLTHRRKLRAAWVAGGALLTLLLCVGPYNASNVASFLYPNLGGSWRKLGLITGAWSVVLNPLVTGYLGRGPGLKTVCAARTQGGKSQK

| Structure (SMILES) | EC50 [1] | Percent Lowering of Glucose (AUC compound vs. AUC Vehicle) [2] |
| --- | --- | --- |
| CC#C[C@@H](CC(=O)O)c1ccc(OCc2ccc3scc(-c4ccccc4C)c3c2)cc1 [Cpd 2, (3S)-3-[4-[[3-(2-Methylphenyl)benzo[b]thiophen-5-yl]methoxy]phenyl]hex-4-ynoic acid] | 5 nM | 72% |
| CC#C[C@@H](CC(=O)O)c1ccc(OCc2ccc3scc(-c4ccc(OCCOC)cc4C)c3c2)cc1 [Cpd 16, (3S)-3-(4-((3-(4-(2-Methoxyethoxy)-2-methylphenyl)benzo[b]thiophen-5-yl)methoxy)phenyl)hex-4-ynoic acid] | 5 nM | 76% |
| CC#C[C@@H](CC(=O)O)c1ccc(OCc2ccc3scc(-c4nc(OC)ccc4C)c3c2)cc1 [Cpd 94, (3S)-3-(4-((3-(6-Methoxy-3-methylpyridin-2-yl)benzo[b]thiophen-5-yl)methoxy)phenyl)hex-4-ynoic acid] | 15 nM |  |
| CC#C[C@@H](CC(=O)O)c1ccc(OCc2ccc3scc(-c4ccc(CC5CCNCC5)cc4C)c3c2)cc1 [Cpd 95, (3S)-3-(4-((3-(2-Methyl-4-(piperidin-4-ylmethyl)phenyl)benzo[b]-thiophen-5-yl)methoxy)phenyl)hex-4-ynoic acid] | 4 nM |  |
| CC#C[C@@H](CC(=O)O)c1ccc(OCc2ccc3scc(-c4ccc(C5CCNCC5)cc4C)c3c2)cc1 [Cpd 96, (3S)-3-(4-((3-(2-Methyl-4-(piperidin-4-yl)phenyl)benzo[b]thiophen-5-yl)methoxy)phenyl)hex-4-ynoic acid] | 8 nM |  |
| CC#CC(CC(=O)O)c1ccc(OCc2ccc3scc(-c4ccccc4C)c3c2)cc1 (stereo not drawn) [Cpd 97, 3-(4-((3-(2-Methylphenyl)benzo[b]thiophen-5-yl)methoxy)phenyl)hex-4-ynoic acid] | 2 nM |  |
| CC#C[C@H](CC(=O)O)c1ccc(OCc2ccc3scc(-c4ccccc4C)c3c2)cc1 [Cpd 98, (3R)-3-[4-[[3-(2-Methylphenyl)benzo[b]thiophen-5-yl]methoxy]phenyl]hex-4-ynoic acid] | 160 nM |  |
